The assay addresses mGluR4 (UniProt Q14833). Kind of assay: mGluR4 potentiation assay (fluorescence, Ca2+ or thallium/GIRK readout; EC20 agonist). Conditions: half maximal effective concentration for mGluR4 potentiation; species of receptor not given. It counts as cell-based, human / rat. Here is the method:
The disclosed compounds and compositions can be evaluated for their ability to act as a potentiator of metabotropic glutamate receptor activity, in particular mGluR4 activity, by any suitable known methodology known in the art. For example, Chinese Hamster Ovary (CHO) cells transfected with human mGluR4 or HEK cells co-transfected with rat mGluR4 and the G-protein regulated Inwardly Rectifying Potassium channel (GIRK) were plated in clear bottom assay plates for assay in a Hamamatsu FDSS Fluorometric Plate Reader. The cells were loaded with either a Ca2+-sensitive fluorescent dye or the thallium responsive dye and the plates were washed and placed into a suitable kinetic plate reader. For human mGluR4 assays, a fluorescence baseline was established for 3-5 seconds, the disclosed compounds were then added to the cells, and the response in cells was measured. Approximately two and a half minutes later, a concentration of mGluR4 orthosteric agonist (e.g. glutamate or L-AP4) eliciting approximately 20% (EC20) of the maximal agonist response was added to the cells, and the response was measured. Two minutes later, a concentration of mGluR4 agonist (e.g. glutamate or L-AP4) eliciting 80% (EC80) of the maximal agonist response was added to the cells, and the response was measured. For rat mGluR4/GIRK experiments, a baseline was established for approximately five seconds, disclosed compounds were added, and either an EC20 or EC80 concentration of agonist was added approximately two and one half minutes later. Potentiation of the agonist response of mGluR4 by the disclosed compounds was observed as an increase in response to the EC20 concentration of agonist in the presence of compound compared to the response to agonist in the absence of compound. Similarly, antagonism of the agonist response of mGluR4 by the disclosed compounds was observed as a decrease in response to the EC80 concentration of agonist in the presence of compound compared to the response to agonist in the absence of compound.
The above described assay operated in two modes. In the first mode, a range of concentrations of the disclosed compounds are added to cells, followed by a single fixed concentration of agonist. If the compound acts as a potentiatior, an EC50 value for potentiation and a maximum extent of potentiation by the compound at this concentration of agonist is determined by non-linear curve fitting. If the compound acts as a noncompetitive antagonist, an IC50 value is determined by non-linear curve fitting. In the second mode, several fixed concentrations of the disclosed compounds are added to various wells on a plate, followed by a range in concentrations of agonist for each concentration of disclosed compound. The EC50 values for the agonist at each concentration of compound are determined by non-linear curve fitting. A decrease in the EC50 value of the agonist with increasing concentrations of the sample compound (a leftward shift of the agonist concentration-response curve) is an indication of the degree of mGluR4 potentiation at a given concentration of the sample compound. A decrease in the maximal response of the agonist with increasing concentrations of the sample compounds, with or without a rightward shift in agonist potency, is an indication of the degree of noncompetitive antagonism at mGluR4. The second mode also indicates whether the sample compounds also affect the maximum response to mGluR4 to agonists.

pEC50: −log10 of the molar value.

Consider `O=C(Nc1ccc(N2C(=O)C3COCCN3C2=O)c(Cl)c1)c1ccc(Cl)o1` (stereo not shown) [Example 1.3.28, 5-Chloro-N-(3-chloro-4-(1,3-dioxodihydro-1H-imidazo[5,1-c][1,4]oxazin-2(3H,8H,8aH)-yl)phenyl)furan-2-carboxamide], for which the negative logarithm of the EC50 (pEC50) is 5.06. To `O=C(Nc1ccc(N2C(=O)C3COCCN3C2=S)c(Cl)c1)c1ccccn1` (stereo not shown) [Example 1.3.30, N-(3-Chloro-4-(1-oxo-3-thioxodihydro-1H-imidazo[5,1-c][1,4]oxazin-2(3H, 8H,8aH)-yl)phenyl)picolinamide] belongs 5.83; to `O=C(Nc1ccc(N2C(=O)C3CCCCN3C2=O)c(Cl)c1)c1ccccn1` (stereo not shown) [Example 1.3.2, N-(3-chloro-4-(1,3-dioxotetrahydroimidazo[1,5-a]pyridin-2(1H,3H,5H)-yl)phenyl)picolinamide], 6.09. To `CN1C(=O)N(c2ccc(NC(=O)c3ccccn3)cc2Cl)C(=O)C12CCCCC2` [Example 1.3.52, N-(3-chloro-4-(1-methyl-2,4-dioxo-1,3-diazaspiro[4.5]decan-3-yl)phenyl)picolinamide] belongs 6.75; to `C[C@@]1(Cc2ccccc2)NC(=O)N(c2ccc(NC(=O)c3nccs3)cc2Cl)C1=O` [Example 1.3.67, (S)-N-(4-(4-benzyl-4-methyl-2,5-dioxoimidazolidin-1-yl)-3-chlorophenyl)thiazole-2-carboxamide], 5.21. With `O=C(Nc1ccc(N2C(=O)N[C@@H](c3ccccc3)C2=O)c(Cl)c1)c1ccccn1` [Example 1.3.56, (S)-N-(3-chloro-4-(2,5-dioxo-4-phenylimidazolidin-1-yl)phenyl)picolinamide], the pEC50 is 6.42. For `CN1CC(=O)N(c2ccc(NC(=O)c3ccccn3)cc2Cl)C1=O` [Example 1.3.11, N-(3-chloro-4-(3-methyl-2,5-dioxoimidazolin-1-yl)phenyl)picolinamide], the negative logarithm of the EC50 (pEC50) is 5.15.

For the molecule `O=C(Nc1ccc(N2C(=O)C3CCCCN3C2=S)c(Cl)c1)c1cnccn1` (stereo not shown) [Example 1.3.76, N-(3-chloro-4-(1-oxo-3-thioxohexahydroimidazo[1,5-a]pyridin-2(3H)-yl)phenyl)pyrazine-2-carboxamide], the negative logarithm of the EC50 (pEC50) is 5.30. On to `O=C(Nc1ccc(N2C(=O)C3CCCCN3C2=O)c(Cl)c1)c1ncccc1F` (stereo not shown) [Example 1.3.7, N-(3-Chloro-4-(1,3-dioxotetrahydroimidazo[1,5-a]pyridin-2(1H,3H,5H)-yl)phenyl)-3-fluoropicolinamide], for which the pEC50 is 5.48. The result for `O=C(Nc1ccc(N2C(=O)C3CCCCN3C2=O)c(Cl)c1)c1cscn1` (stereo not shown) [Example 1.3.5, N-(3-Chloro-4-(1,3-dioxotetrahydroimidazo[1,5-a]pyridin-2(1H,3H,5H)-yl)phenyl)thiazole-4-carboxamide] reads 5.70. As for `O=C(Nc1ccc(N2C(=O)C3COCCN3C2=S)c(Cl)c1)c1ncccc1F` (stereo not shown) [Example 1.3.39, N-(3-Chloro-4-(1-oxo-3-thioxodihydro-1H-imidazo[5,1-c][1,4]oxazin-2(3H, 8H,8aH)-yl)phenyl)-3-fluoropicolinamide], the pEC50 was 5.92. Take `O=C(Nc1ccc(N2C(=O)C3CCCCN3C2=S)c(Cl)c1)c1ncccc1F` (stereo not shown) [Example 1.3.84, N-(3-chloro-4-(1-oxo-3-thioxohexahydroimidazo[1,5-a]pyridin-2(3H)-yl)phenyl)-3-fluoropicolinamide]: the negative logarithm of the EC50 (pEC50) was 6.00.

For the molecule `O=C(Nc1ccc(N2C(=O)C3COCCN3C2=S)c(Cl)c1)c1cccc(F)n1` (stereo not shown) [Example 1.3.38, N-(3-Chloro-4-(1-oxo-3-thioxodihydro-1H-imidazo[5,1-c][1,4]oxazin-2(3H, 8H,8aH)-yl)phenyl)-6-fluoropicolinamide], the pEC50 was 6.03. With `O=C(Nc1ccc(N2C(=O)C3CCCCN3C2=S)c(Cl)c1)c1nccs1` (stereo not shown) [Example 1.3.79, N-(3-chloro-4-(1-oxo-3-thioxohexahydroimidazo[1,5-a]pyridin-2(3H)-yl)phenyl)thiazole-2-carboxamide], the negative-log EC50 (pEC50) was 5.87. For `O=C(Nc1ccc(N2C(=O)NC3(CCCCC3)C2=O)c(C(F)(F)F)c1)c1ccco1` [Example 1.3.55, N-(4-(2,4-dioxo-1,3-diazaspiro[4.5]decan-3-yl)-3-(trifluoromethyl)phenyl)furan-2-carboxamide], the pEC50 was 5.39.

`CC12CCCCN1C(=O)N(c1ccc(NC(=O)c3cscn3)cc1Cl)C2=O` (stereo not shown) [Example 1.3.87, N-(3-chloro-4-(8a-methyl-1,3-dioxohexahydroimidazo[1,5-a]pyridin-2(3H)-yl)phenyl)thiazole-4-carboxamide]: the negative-log EC50 (pEC50) is 5.57. Regarding `CC12CCCCN1C(=O)N(c1ccc(NC(=O)c3ccccn3)cc1Cl)C2=O` (stereo not shown) [Example 1.3.48, N-(3-chloro-4-(8a-methyl-1,3-dioxohexahydroimidazo[1,5-a]pyridin-2(3H)-yl)phenyl)picolinamide], the pEC50 is 6.36. On to `O=C(Nc1ccc(N2C(=O)C3COCCN3C2=O)c(Cl)c1)c1nccs1` (stereo not shown) [Example 1.3.25, N-(3-Chloro-4-(1,3-dioxodihydro-1H-imidazo[5,1-c][1,4]oxazin-2(3H,8H,8aH)-yl)phenyl)thiazole-2-carboxamide], for which the negative-log EC50 (pEC50) is 5.20.

As to `O=C(Nc1ccc(N2C(=O)C3CCCCN3C2=O)cc1)c1ccccn1` (stereo not shown) [Example 1.3.3, N-(4-(1,3-dioxotetrahydroimidazo[1,5-a]pyridin-2(1H,3H,5H)-yl)phenyl)picolinamide], the pEC50 is 5.51.

As for `CC(C)[C@@]1(C)NC(=O)N(c2ccc(NC(=O)c3ccccn3)cc2Cl)C1=O` [Example 1.3.60, (R)-N-(3-chloro-4-(4-isopropyl-4-methyl-2,5-dioxoimidazolidin-1-yl)phenyl)picolinamide], the pEC50 was 5.44. On to `CC12CCCCN1C(=S)N(c1ccc(NC(=O)c3ccc(Cl)o3)cc1Cl)C2=O` (stereo not shown) [Example 1.3.97, 5-chloro-N-(3-chloro-4-(8a-methyl-1-oxo-3-thioxohexahydroimidazo[1,5-a]pyridin-2(3H)-yl)phenyl)furan-2-carboxamide], for which the negative-log EC50 (pEC50) was 6.08. To `CC(C)(C)OC(=O)N1CCN2C(=O)N(c3ccc(NC(=O)c4ccccn4)cc3Cl)C(=O)C2C1` (stereo not shown) [Example 1.3.44, tert-butyl-2-(2-chloro-4-(picolinamide)phenyl)-1,3-dioxohexahydroimidazo[1,5-a]pyrazine-7(1H)-carboxylate] belongs 6.12; to `O=C(Nc1ccc(N2C(=O)C3COCCN3C2=S)c(Cl)c1)c1ncc(F)cc1F` (stereo not shown) [Example 1.3.36, N-(3-Chloro-4-(1-oxo-3-thioxodihydro-1H-imidazo[5,1-c][1,4]oxazin-2(3H, 8H,8aH)-yl)phenyl)-3,5-difluoropicolinamide], 5.77; to `O=C(Nc1ccc(N2C(=O)NC3(CC4CCC3C4)C2=O)c(Cl)c1)c1ccccn1` (stereo not shown) [Example 1.3.53, N-(3-chloro-4-(2′,5′-dioxospiro[bicyclo[2.2.1]heptane-2,4′-imidazolidin]-1′-yl)phenyl)picolinamide], 6.66. For the molecule `COc1cccc(C(=O)Nc2ccc(N3C(=O)N[C@@](C)(Cc4ccccc4)C3=O)c(Cl)c2)n1` [Example 1.3.68, (S)-N-(4-(4-benzyl-4-methyl-2,5-dioxoimidazolidin-1-yl)-3-chlorophenyl)-6-methoxypicolinamide], the pEC50 is 5.23.

As to `CC12CCCCN1C(=S)N(c1ccc(NC(=O)c3ccccn3)cc1Cl)C2=O` (stereo not shown) [Example 1.3.49, N-(3-chloro-4-(8a-methyl-1-oxo-3-thioxohexahydroimidazo[1,5-a]pyridin-2(3H)-yl)phenyl)picolinamide], the pEC50 is 6.73. For the molecule `C[C@@]1(Cc2ccccc2)NC(=O)N(c2ccc(NC(=O)c3ccccn3)cc2Cl)C1=O` [Example 1.3.20, (S)-N-(4-(4-benzyl-4-methyl-2,5-dioxoimidazolidin-1-yl)-3-chlorophenyl)picolinamide], the pEC50 was 6.22. Take `CC12CCCCN1C(=S)N(c1ccc(NC(=O)c3cccc(F)n3)cc1Cl)C2=O` (stereo not shown) [Example 1.3.98, N-(3-chloro-4-(8a-methyl-1-oxo-3-thioxohexahydroimidazo[1,5-a]pyridin-2(3H)-yl)phenyl)-6-fluoropicolinamide]: the pEC50 was 6.33.

The values above are taken from US8779157B2, “MGLUR4 allosteric potentiators, compositions, and methods of treating neurological dysfunction” (Vanderbilt University, priority 2009, dated 2014).
